# Like-named read-outs stand apart in the source and are kept apart here.
# Assays:
# tomato late blight [1] = type: in vivo, Tomato (cultivar: Ponderosa); details: Test Example 4 (curative)
# Grape Downy Mildew = assay: Test on preventive effect against grape downy mildew (leaf disks test); type: in vivo, grapes (cultivar: Neomuscat)
# From the text: Leaf disks having a diameter of 1 cm were punched out with leaf puncher from leaves of grapes (cultivar: Neomuscat), and a drug solution having the respective test compounds adjusted to the predetermined concentrations (applied amount: 500 L/ha), was applied to the leaf disks by means of an indoor spray equipment. After the applied solution dried, the leaf disks were transferred to petri dishes having a diameter of 3 cm, a suspension of zoosporangium of Grape Downy Mildew was dropwise applied, and the leaf disks were inoculated. They were kept in a chamber at 20° C. for 10 days. Then, the disease severity index of each disk was investigated by the following standards, and the disease severity was obtained by the following formula.
# The disease severity in non-treated area was obtained in the same manner as in the treated area except that instead of the drug solution, water was applied by means of an auto sprayer.
# Disease outbreak index 0: No sporogenesis is observed.
# Disease severity index 1: The sporogenesis area is less than 10% of the drop area.
# Disease severity index 2: The sporogenesis area is from 10% to less than 50% of the drop area.
# Disease severity index 3: The sporogenesis area is from 50% to less than 90% of the drop area.
# Disease severity index 4: The sporogenesis area is at least 90% of the drop area.
# Disease severity=[(0×A+1×B+2×C+3×D+4×E)/{4×(A+B+C+D+E)}]×100
# where A is the number of disks with disease severity index 0, B is the number of disks with disease severity index 1, C is the number of disks with disease severity index 2, D is the number of disks with disease severity index 3, and E is the number of disks with disease severity index 4.
# Further, a theoretical value can be calculated by the Colby formula. If the experimental value is lower than the theoretical value by the Colby formula, the fungicidal composition for agricultural or horticultural use of the present invention has a synergistic effect for controlling the plant disease. In this context, the theoretical values by the Colby formula are also shown in brackets ( ) in Tables 9 and 10.
# cucumber downy mildew [2] = assay: Test on curative effect against cucumber downy mildew; type: in vivo, Cucumber (cultivar: Sagamihanshirofushinari)
# Procedure: Cucumber (cultivar: Sagamihanshirofushinari) was cultivated in a polyethylene pot having a diameter of 7.5 cm, and when it reached two-leaf stage, the cucumber was sprayed and inoculated with a suspension of spores of cucumber downy mildew and kept in a humidified chamber at 20° C. for 20 hours. Then, after drying the crop plant, a drug solution having the respective test compounds adjusted to the predetermined concentrations, was applied in a sufficient amount (20 ml) by means of a spray gun. After the sprayed solution dried, it was kept in a thermostatic chamber at 20° C. for 5 days, whereupon the lesion area ratio was obtained. The results are shown in is Tables 3 and 4.
# (§1) The lesion area ratio in non-treated area was obtained in the same manner as in the treated area except that instead of the drug solution, water was applied by means of a spray gun.
# Further, a theoretical value can be calculated by the Colby formula. If the experimental value is lower than the theoretical value by the Colby formula, the fungicidal composition for agricultural or horticultural use of the present invention has a synergistic effect for controlling the plant disease. In this context, the theoretical values by the Colby formula are also shown in brackets ( ) in Tables 3 and 4.
# cucumber downy mildew [3] = assay: Test on preventive effect against cucumber downy mildew; type: in vivo, Cucumber (cultivar: Sagamihanshirofushinari)
# Procedure: Cucumber (cultivar: Sagamihanshirofushinari) was cultivated in a polyethylene pot having a diameter of 7.5 cm, and when the cucumber reached two-leaf stage, a drug solution having the respective test compounds adjusted to the predetermined concentrations (applied amount: 1000 L/ha), was applied by means of a spray gun. After the applied solution dried, the cucumber was sprayed and inoculated with a suspension of spores of cucumber downy mildew and kept in a humidified chamber at 20° C. for 20 hours. Thereafter, the cucumber was kept in a thermostatic chamber at 20° C. for 7 days, whereupon the lesion area rate was obtained. Here, the lesion area rate is a value obtained in such a manner that lesion area of Downy Mildew of specimen leaves was obtained by visual examination, and its ratio to the total area of specimen leaves is shown by percent.
# as §1
# Further, a theoretical value can be calculated by the Colby formula. If the experimental value is lower than the theoretical value by the Colby formula, the fungicidal composition for agricultural or horticultural use of the present invention has a synergistic effect for controlling the plant disease. In this context, the theoretical values by the Colby formula are also shown in brackets ( ) in Tables 1 and 2.
# tomato late blight [4] = type: in vivo, Tomato (cultivar: Ponderosa)
smiles,measurement,setting,value
COc1ccc(/C(=C\C(=O)N2CCOCC2)c2ccc(F)cc2)cc1OC [Flumorph],Disease severity in the test on preventive effect against tomato late blight,tomato late blight [1]; Flumorph 50 ppm alone,100
same,Disease severity in the test on preventive effect against tomato late blight,tomato late blight [1]; Flumorph 200 ppm alone,37
same,Disease severity in the test on preventive effect against grape downy mildew,Grape Downy Mildew; Flumorph 1.6 ppm alone,40
same,Lesion area ratio in the test on curative effect against cucumber downy mildew,cucumber downy mildew [2]; Flumorph 400 ppm alone,90%
same,Lesion area ratio in the test on preventive effect against cucumber downy mildew,cucumber downy mildew [3]; Flumorph 12.5 ppm alone,20%
same,Disease severity in the test on preventive effect against tomato late blight,tomato late blight [4]; Flumorph 6.3 ppm alone,100
same,Disease severity in the test on preventive effect against tomato late blight,tomato late blight [4]; Flumorph 12.5 ppm alone,100
COC(=O)[C@@H](C)N(C(=O)Cc1ccccc1)c1c(C)cccc1C [Benalaxyl-M],Disease severity in the test on preventive effect against tomato late blight,tomato late blight [1]; Benalaxyl-M 50 ppm alone,94
same,Disease severity in the test on preventive effect against tomato late blight,tomato late blight [1]; Benalaxyl-M 200 ppm alone,75
same,Disease severity in the test on preventive effect against grape downy mildew,Grape Downy Mildew; Benalaxyl-M 0.024 ppm alone,100
same,Lesion area ratio in the test on curative effect against cucumber downy mildew,cucumber downy mildew [2]; Benalaxyl-M 400 ppm alone,100%
same,Lesion area ratio in the test on preventive effect against cucumber downy mildew,cucumber downy mildew [3]; Benalaxyl-M 25 ppm alone,100%
same,Disease severity in the test on preventive effect against tomato late blight,tomato late blight [4]; Benalaxyl-M 25 ppm alone,100
same,Disease severity in the test on preventive effect against tomato late blight,tomato late blight [4]; Benalaxyl-M 100 ppm alone,100
"Cc1ccc(-c2c(Cl)nc(C#N)n2S(=O)(=O)N(C)C)cc1 [Compound No. 1, 4-chloro-2-cyano-1-dimethylsulfamoyl-5-(4-methylphenyl) imidazole]",Disease severity in the test on preventive effect against tomato late blight,tomato late blight [1]; Compound No. 1 50 ppm alone,100
same,Disease severity in the test on preventive effect against tomato late blight,tomato late blight [1]; Compound No. 1 400 ppm alone,94
same,Disease severity in the test on preventive effect against grape downy mildew,Grape Downy Mildew; Compound No. 1 0.098 ppm alone,100
same,Disease severity in the test on preventive effect against grape downy mildew,Grape Downy Mildew; Compound No. 1 0.39 ppm alone,40
same,Lesion area ratio in the test on curative effect against cucumber downy mildew,cucumber downy mildew [2]; Compound No. 1 50 ppm alone,100%
same,Lesion area ratio in the test on curative effect against cucumber downy mildew,cucumber downy mildew [2]; Compound No. 1 200 ppm alone,100%
same,Lesion area ratio in the test on preventive effect against cucumber downy mildew,cucumber downy mildew [3]; Compound No. 1 0.2 ppm alone,10%
same,Disease severity in the test on preventive effect against tomato late blight,tomato late blight [4]; Compound No. 1 1.6 ppm alone,19
same,Disease severity in the test on preventive effect against tomato late blight,tomato late blight [4]; Compound No. 1 6.3 ppm alone,12

# — US20090163567A1 (priority 2005, published 2009)
